Source: ChEMBL document CHEMBL4138123, “Design, synthesis and biological evaluation of novel pyrazolochalcones as potential modulators of PI3K/Akt/mTOR pathway and inducers of apoptosis in breast cancer cells” (Eur J Med Chem, 2017)

Key:
Assay type in all cases: functional
786-0 [1] = assay: Cytotoxicity against human 786-0 cells assessed as cell growth at 10 uM after 48 hrs by sulforhodamine B assay relative to control; details: 786-0, 48 h, read-out: Activity
MDA-MB-231 [2] = assay: Cytotoxicity against human MDA-MB-231 cells assessed as cell growth at 1 uM after 48 hrs by sulforhodamine B assay relative to control; details: MDA-MB-231, 48 h, read-out: Activity
OVCAR-4 = assay: Cytotoxicity against human OVCAR4 cells assessed as growth inhibition after 48 hrs by sulforhodamine B assay; details: OVCAR-4, 48 h
MCF7 [3] = assay: Cytotoxicity against human MCF7 cells assessed as cell growth at 10 uM after 48 hrs by sulforhodamine B assay relative to control; details: MCF7, 48 h, read-out: Activity
UO-31 = assay: Cytotoxicity against human UO31 cells assessed as cell growth at 100 uM after 48 hrs by sulforhodamine B assay relative to control; details: UO-31, 48 h, read-out: Activity
IGROV-1 = assay: Cytotoxicity against human IGROV1 cells assessed as cell growth at 0.01 uM after 48 hrs by sulforhodamine B assay relative to control; details: IGROV-1, 48 h, read-out: Activity
A498 = assay: Cytotoxicity against human A498 cells assessed as cell growth at 1 uM after 48 hrs by sulforhodamine B assay relative to control; details: A498, 48 h, read-out: Activity
786-0 [4] = assay: Cytotoxicity against human 786-0 cells assessed as growth inhibition after 48 hrs by sulforhodamine B assay; details: 786-0, 48 h
MDA-MB-231 [5] = assay: Cytotoxicity against human MDA-MB-231 cells assessed as growth inhibition after 48 hrs by sulforhodamine B assay; details: MDA-MB-231, 48 h
HL-60(TB) = assay: Cytotoxicity against human HL-60(TB) cells assessed as cell growth at 0.1 uM after 48 hrs by sulforhodamine B assay relative to control; details: HL-60, 48 h, read-out: Activity
NCI-H23 [6] = assay: Cytotoxicity against human NCI-H23 cells assessed as cell growth at 100 uM after 48 hrs by sulforhodamine B assay relative to control; details: NCI-H23, 48 h, read-out: Activity
NCI-H322M = assay: Cytotoxicity against human NCI-H322M cells assessed as cell growth at 0.01 uM after 48 hrs by sulforhodamine B assay relative to control; details: read-out: Activity
SF-539 = assay: Cytotoxicity against human SF539 cells assessed as cell growth at 100 uM after 48 hrs by sulforhodamine B assay relative to control; details: SF-539, 48 h, read-out: Activity
OVCAR-3 = assay: Cytotoxicity against human OVCAR3 cells assessed as cell growth at 1 uM after 48 hrs by sulforhodamine B assay relative to control; details: OVCAR-3, 48 h, read-out: Activity
MCF7 [7] = assay: Cytotoxicity against human MCF7 cells assessed as cell growth at 1 uM after 48 hrs by sulforhodamine B assay relative to control; details: MCF7, 48 h, read-out: Activity
Malme-3M = assay: Cytotoxicity against human MALME-3M cells assessed as growth inhibition after 48 hrs by sulforhodamine B assay
MOLT-4 = assay: Cytotoxicity against human MOLT4 cells assessed as cell growth at 1 uM after 48 hrs by sulforhodamine B assay relative to control; details: MOLT-4, 48 h, read-out: Activity
HCT-15 = assay: Cytotoxicity against human HCT15 cells assessed as cell growth at 1 uM after 48 hrs by sulforhodamine B assay relative to control; details: HCT-15, 48 h, read-out: Activity
PC-3 = assay: Cytotoxicity against human PC3 cells assessed as cell growth at 100 uM after 48 hrs by sulforhodamine B assay relative to control; details: PC-3, 48 h, read-out: Activity
A549 = assay: Cytotoxicity against human A549/ATCC cells assessed as cell growth at 0.1 uM after 48 hrs by sulforhodamine B assay relative to control; details: A549, 48 h, read-out: Activity
UACC-62 = assay: Cytotoxicity against human UACC62 cells assessed as cell growth at 10 uM after 48 hrs by sulforhodamine B assay relative to control; details: UACC-62, 48 h, read-out: Activity
M14 = assay: Cytotoxicity against human M14 cells assessed as cell growth at 0.1 uM after 48 hrs by sulforhodamine B assay relative to control; details: M14, 48 h, read-out: Activity
MCF7 [8] = assay: Cytotoxicity against human MCF7 cells assessed as cell growth at 0.1 uM after 48 hrs by sulforhodamine B assay relative to control; details: MCF7, 48 h, read-out: Activity
SNB-19 = assay: Cytotoxicity against human SNB19 cells assessed as cell growth at 1 uM after 48 hrs by sulforhodamine B assay relative to control; details: SNB-19, 48 h, read-out: Activity
TK-10 = assay: Cytotoxicity against human TK10 cells assessed as cell growth at 10 uM after 48 hrs by sulforhodamine B assay relative to control; details: TK-10, 48 h, read-out: Activity
NCI-H522 = assay: Cytotoxicity against human NCI-H522 cells assessed as cell growth at 0.1 uM after 48 hrs by sulforhodamine B assay relative to control; details: NCI-H522, 48 h, read-out: Activity
UACC-257 = assay: Cytotoxicity against human UACC257 cells assessed as cell growth at 0.01 uM after 48 hrs by sulforhodamine B assay relative to control; details: UACC-257, 48 h, read-out: Activity
HCC 2998 = assay: Cytotoxicity against human HCC2998 cells assessed as cell growth at 10 uM after 48 hrs by sulforhodamine B assay relative to control; details: HCC 2998, 48 h, read-out: Activity
Hs-578T = assay: Cytotoxicity against human Hs 578T cells assessed as cell growth at 0.1 uM after 48 hrs by sulforhodamine B assay relative to control; details: read-out: Activity
SK-OV-3 [9] = assay: Cytotoxicity against human SKOV3 cells assessed as growth inhibition after 48 hrs by sulforhodamine B assay; details: SK-OV-3, 48 h
NCI-H23 [10] = assay: Cytotoxicity against human NCI-H23 cells assessed as cell growth at 10 uM after 48 hrs by sulforhodamine B assay relative to control; details: NCI-H23, 48 h, read-out: Activity
SF-268 = assay: Cytotoxicity against human SF268 cells assessed as cell growth at 100 uM after 48 hrs by sulforhodamine B assay relative to control; details: SF-268, 48 h, read-out: Activity
RXF 393 = assay: Cytotoxicity against human RXF393 cells assessed as cell growth at 1 uM after 48 hrs by sulforhodamine B assay relative to control; details: RXF 393, 48 h, read-out: Activity
K562 = assay: Cytotoxicity against human K562 cells assessed as cell growth at 0.1 uM after 48 hrs by sulforhodamine B assay relative to control; details: K562, 48 h, read-out: Activity
SK-OV-3 [11] = assay: Cytotoxicity against human SKOV3 cells assessed as cell growth at 100 uM after 48 hrs by sulforhodamine B assay relative to control; details: SK-OV-3, 48 h, read-out: Activity

`COc1ccc(-c2cc(/C=C/C(=O)c3cc(OC)c(OC)c(OC)c3)[nH]n2)cc1OC` was tested, and the growth at 10 µM (786-0 [1]) was -94%, the growth at 1 µM (MDA-MB-231 [2]) was 67% and the GI50 (OVCAR-4) was 1.62 µM. For the same molecule, the TGI (OVCAR-4) was 7.17 µM, the growth at 10 µM (MCF7 [3]) was -81% and the growth at 100 µM (UO-31) was -93%. The growth at 0.01 µM (IGROV-1) was 103%, the growth at 1 µM (A498) was 65% and the GI50 (786-0 [4]) was 1.5 µM. For the same molecule, the LC50 (786-0 [4]) was 5.6 µM, the TGI (786-0 [4]) was 2.9 µM and the GI50 (MDA-MB-231 [5]) was 2.02 µM. It also gave an LC50 (MDA-MB-231 [5]) of 55.4 µM, a TGI (MDA-MB-231 [5]) of 13.5 µM and a growth at 0.1 µM (HL-60(TB)) of 93%. For the same molecule, the growth at 100 µM (NCI-H23 [6]) was -50%, the growth at 0.01 µM (NCI-H322M) was 93% and the growth at 100 µM (SF-539) was -87%. For the same molecule, the growth at 1 µM (OVCAR-3) was 84%, the growth at 1 µM (MCF7 [7]) was 53% and the GI50 (Malme-3M) was 2.32 µM. The LC50 (Malme-3M) was 47.5 µM, the TGI (Malme-3M) was 6.19 µM and the growth at 1 µM (MOLT-4) was 69%. For the same molecule, the growth at 1 µM (HCT-15) was 57%, the growth at 100 µM (PC-3) was -74% and the growth at 0.1 µM (A549) was 98%. The growth at 10 µM (UACC-62) was -61%, the growth at 0.1 µM (M14) was 92% and the growth at 0.1 µM (MCF7 [8]) was 86%. For the same molecule, the growth at 1 µM (SNB-19) was 77%, the growth at 10 µM (TK-10) was 7% and the growth at 0.1 µM (NCI-H522) was 86%. The growth at 0.01 µM (UACC-257) was 96%, the growth at 10 µM (HCC 2998) was -93% and the growth at 0.1 µM (Hs-578T) was 97%. The GI50 (SK-OV-3 [9]) was 5.47 µM, the LC50 (SK-OV-3 [9]) was 45.5 µM and the TGI (SK-OV-3 [9]) was 19 µM. It also gave a growth at 10 µM (NCI-H23 [10]) of -39%, a growth at 100 µM (SF-268) of -72% and a growth at 1 µM (RXF 393) of 80%. It also gave a growth at 0.1 µM (K562) of 94% and a growth at 100 µM (SK-OV-3 [11]) of -95%.

Molecule `COc1cc(C(=O)/C=C/c2cc(-c3cc(OC)c(OC)c(OC)c3)n[nH]2)cc(OC)c1OC` has a growth at 10 µM (786-0 [1]) of -77%, a growth at 1 µM (MDA-MB-231 [2]) of 73% and an LC50 (OVCAR-4) of 5.25 µM. It also gave a TGI (OVCAR-4) of 2.76 µM, a growth at 10 µM (MCF7 [3]) of -85% and a growth at 100 µM (UO-31) of -100%. It also gave a growth at 0.01 µM (IGROV-1) of 104%, a growth at 1 µM (A498) of 80% and an LC50 (786-0 [4]) of 6.76 µM. It also gave a TGI (786-0 [4]) of 3.25 µM, an LC50 (MDA-MB-231 [5]) of 9.51 µM and a TGI (MDA-MB-231 [5]) of 3.8 µM. For the same molecule, the growth at 0.1 µM (HL-60(TB)) was 101%, the growth at 100 µM (NCI-H23 [6]) was -62% and the growth at 0.01 µM (NCI-H322M) was 96%. For the same molecule, the growth at 100 µM (SF-539) was -99%, the growth at 1 µM (OVCAR-3) was 97% and the growth at 1 µM (MCF7 [7]) was 40%. The LC50 (Malme-3M) was 8.99 µM, the TGI (Malme-3M) was 4.09 µM and the growth at 1 µM (MOLT-4) was 81%. The growth at 1 µM (HCT-15) was 76%, the growth at 100 µM (PC-3) was -94% and the growth at 0.1 µM (A549) was 94%. For the same molecule, the growth at 10 µM (UACC-62) was -69%, the growth at 0.1 µM (M14) was 109% and the growth at 0.1 µM (MCF7 [8]) was 95%. It also gave a growth at 1 µM (SNB-19) of 82%, a growth at 10 µM (TK-10) of -98% and a growth at 0.1 µM (NCI-H522) of 103%. It also gave a growth at 0.01 µM (UACC-257) of 94%, a growth at 10 µM (HCC 2998) of -87% and a growth at 0.1 µM (Hs-578T) of 90%. It also gave an LC50 (SK-OV-3 [9]) of 33.4 µM, a TGI (SK-OV-3 [9]) of 11.1 µM and a growth at 100 µM (SF-268) of -75%. For the same molecule, the growth at 1 µM (RXF 393) was 65%, the growth at 0.1 µM (K562) was 104% and the growth at 100 µM (SK-OV-3 [11]) was -100%.

`COc1ccc(-c2cc(/C=C/C(=O)c3ccc4c(c3)OCO4)[nH]n2)cc1OC` was tested, and the GI50 (OVCAR-4) was 1.92 µM, the GI50 (786-0 [4]) was 1.81 µM and the GI50 (MDA-MB-231 [5]) was 1.88 µM. It also gave a GI50 (Malme-3M) of 2.59 µM and a GI50 (SK-OV-3 [9]) of 3.13 µM.
